The results in this text go back to ChEMBL document CHEMBL3351441, “The effect of pK(a) on pyrimidine/pyridine-derived histamine H4 ligands” (Bioorg Med Chem Lett, 2014).

The target in data set [1] is Histamine H4 receptor (Homo sapiens, UniProt Q9H3N8). The data set can be described thus: Displacement of [3H]histamine from human recombinant histamine H4 receptor. In general terms: In a radioligand displacement assay an active substance lowers the binding of a labelled ligand.
The nature of data set [2]: Dissociation constant, pKa of the compound by Analiza PRO analyzer based method. In kind it is physicochemical.
Data set [3] can be described thus: Dissociation constant, pKa of the compound by potentiometric titration. In kind it is physicochemical.

Chain of Histamine H4 receptor (Q9H3N8 whole entry): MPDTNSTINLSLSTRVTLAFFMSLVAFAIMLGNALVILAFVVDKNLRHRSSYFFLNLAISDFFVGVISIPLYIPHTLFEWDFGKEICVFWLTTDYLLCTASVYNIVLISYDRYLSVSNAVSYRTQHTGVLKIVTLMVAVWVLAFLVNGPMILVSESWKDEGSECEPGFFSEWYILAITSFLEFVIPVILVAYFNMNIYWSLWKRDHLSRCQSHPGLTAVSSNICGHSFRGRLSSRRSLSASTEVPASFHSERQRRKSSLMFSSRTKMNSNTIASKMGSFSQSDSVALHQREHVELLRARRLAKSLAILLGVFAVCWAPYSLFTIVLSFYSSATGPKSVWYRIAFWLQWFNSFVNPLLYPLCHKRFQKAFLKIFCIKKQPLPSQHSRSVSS

What is called Ki is the dissociation constant of the complex between target and ligand, obtained from inhibition or displacement. By pKa is commonly meant the negative logarithm of the acid dissociation constant. Read a high pKa as a weaker acid or stronger base. As to `CN[C@@H]1CCN(c2cc(N)nc(NC(C)C)c2)C1`, in data set [1], the Ki is 3.1 nM. In data set [2], this molecule registered a pKa of 6.5. Regarding `CN[C@@H]1CCN(c2cc(N)nc(NC(C)C)n2)C1`, in data set [2], the pKa was 6.3. In data set [2], `Nc1nc(C2CCCC2)cc(N2CCNCC2)n1` came in with a pKa of 7.9.

Regarding `CCc1cc(N2CC[C@@H](NC)C2)nc(N)n1`, the pKa in data set [3] came out at 7.5; in data set [2], 6.3. On to `CN[C@@H]1CCN(c2cc(C(F)(F)F)nc(N)n2)C1`, for which, in data set [1], the Ki is > 10000 nM. Further, the pKa in data set [3] and in data set [2] was 3.1 in each case. For `CCc1cc(N2CC[C@@H](NC)C2)ncn1`, the Ki in data set [1] stood at 456 nM. In data set [3], the pKa turned out to be 5.9.

For the molecule `CN[C@@H]1CCN(c2cc(CCl)nc(N)n2)C1`, the Ki in data set [1] stood at 92 nM. Also, the pKa in data set [2] was 6. On the same counts, the results for `CN[C@@H]1CCN(c2cc(CF)nc(N)n2)C1` are 126 nM and 5.5. For `CN[C@@H]1CCN(c2cc(C(F)F)nc(N)n2)C1`, the Ki in data set [1] is > 10000 nM. This molecule returned a pKa in data set [2] of 4.4. Consider `CN[C@@H]1CCN(c2cc(CC(F)(F)F)nc(N)n2)C1`, for which, in data set [1], the Ki is 11 nM. Moreover, the pKa in data set [2] was 5.4. In turn, `CN[C@@H]1CCN(c2cc(CCC(F)(F)F)nc(N)n2)C1` displayed a pKa in data set [2] of 7.8.

As for `CN[C@@H]1CCN(c2cc(N)nc(C(C)C)n2)C1`, the Ki in data set [1] was 320 nM. In addition, in data set [2], the pKa amounted to 6.3. For `CN[C@@H]1CCN(c2ccnc(C(C)C)n2)C1`, the Ki in data set [1] was 460 nM. The molecule further registered a pKa in data set [2] of 6.5. On to `CN[C@@H]1CCN(c2ccnc(NC(C)C)n2)C1`, for which, in data set [2], the pKa came to 6.4. Same read-out and setting: the value for `CN[C@@H]1CCN(c2ccnc(NC(C)C)c2)C1` was 6.6. As for `Nc1nc(C2CCCC2)cc(C2CCNCC2)n1`, the Ki in data set [1] stood at 1550 nM. Also, in data set [2], the pKa worked out at 4.5. The corresponding values for `Nc1nc(NC2CCCC2)cc(C2CCNCC2)n1` are > 1000 nM and 6.1.

In the case of `Nc1cc(C2CCNCC2)cc(NC2CCCC2)n1`, the Ki in data set [1] stood at 50 nM. The molecule also returned a pKa in data set [2] of 6.1. Consider `Nc1cc(N2CCNCC2)cc(NC2CCCC2)n1`, for which, in data set [1], the Ki was 2 nM. This molecule returned a pKa in data set [2] of 6.5. The corresponding values for `Nc1cc(C2CCNCC2)cc(OC2CCCC2)n1` are > 10000 nM and 4.7.
